Experimental data reported in paper PMC5438822, “Pharmacokinetics and safety of carfilzomib in patients with relapsed multiple myeloma and end-stage renal disease (ESRD): an open-label, single-arm, phase I study” (Cancer Chemotherapy and Pharmacology, 2017).
Like-named read-outs stand apart in the source and are kept apart here.

Experiments:
[1] = system: patients with relapsed multiple myeloma; assay: Best overall response as determined by investigator (IMWG / EBMT criteria), DOR and PFS; format: in vivo, human; settings: for Best overall response: Minimal response / Best overall response: Complete response / Best overall response: Not evaluable / Best overall response: Partial response / Best overall response: Progressive disease / Best overall response: Stable disease / Best overall response: Stringent complete response / Best overall response: Very good partial response / Clinical benefit rate (95% CI), minimal response or better / Overall response rate (95% CI), partial response or better: response-evaluable, carfilzomib 20/27/56 mg/m^2 IV; for Best overall response: Minimal response: EBMT criteria
Protocol: (§1) This was a phase I, multicenter (13 sites in US, Canada, and Australia), open-label, nonrandomized, comparative PK study of carfilzomib in patients with multiple myeloma and normal renal function or ESRD on hemodialysis (NCT01949532). The primary objective was to assess the influence of ESRD on AUC, from time 0 to the last concentration measured (AUC0−last) and from time 0 extrapolated to infinity (AUC0−inf) of carfilzomib 56 mg/m^2 at cycle 2 day 1 in patients with relapsed multiple myeloma. Secondary objectives were to compare between patient cohorts additional PK parameters of carfilzomib at cycle 2 day 1, including C max, time to maximum concentration (t max), clearance, terminal half-life (t 1/2), volume of distribution at steady state, and mean residence time; compare between patient cohorts PK parameters of carfilzomib 27 mg/m^2 at cycle 1 day 16; evaluate PK parameters for carfilzomib’s major metabolites (PR-389/M14, PR-413/M15, and PR-519/M16) to help characterize metabolism and elimination profile of carfilzomib; and evaluate the safety and tolerability of carfilzomib. Exploratory objectives included evaluation of ORR (defined as PR or better) and clinical benefit rate [CBR; defined as ORR + minimal response (MR)], and estimation of duration of response (DOR) and PFS.
(§2) Patients received IV carfilzomib (as a 30-min infusion) in 28-day cycles (Fig. 1). All received carfilzomib 20 mg/m^2 on days 1 and 2 of cycle 1 and escalated to 27 mg/m^2 on day 8, 9, 15, and 16 of cycle 1. If tolerated, carfilzomib dose was increased to 56 mg/m^2 starting on day 1 of cycle 2 and continued on the same schedule (day 1, 2, 8, 9, 15, and 16 of each cycle). Oral or IV dexamethasone 8 mg/day was given on the same days as carfilzomib during cycles 1 and 2 but was optional in cycles 3 and beyond. IV hydration was given immediately prior to and following carfilzomib dosing during cycle 1 and at the investigator’s discretion in cycle 2 and higher; hydration consisted of 250 to 500 mL IV normal saline or other appropriate IV fluid.
(§3) Blood samples were collected for PK assessments for carfilzomib and its major metabolites (metabolites PR-389/M14, PR-413/M15, and PR-519/M16) (Fig. 1). Samples were collected at the following timepoints on cycle 1 day 16 (27 mg/m^2 dose) and cycle 2 day 1 (56 mg/m^2 dose) or on subsequent infusion days when the intended dose levels were administered: before infusion; 15 min after start of infusion; within 2 min before the end of infusion; and at 5, 15, and 30 min (±2 min for all timepoints ≤30 min), and 1, 2, and 4 h (±5 min for all timepoints >30 min) after the end of the infusion. Safety was assessed throughout the study and included the monitoring of AEs, clinical laboratory evaluations, electrocardiograms, and vital signs. Each evaluable patient’s response to treatment or progression over the course of the study was evaluated by the investigator according to the International Myeloma Working Group, International Uniform Response Criteria for Multiple Myeloma and European Group for Blood and Marrow Transplantation at day 1 of each cycle.
(§4) Safety was assessed for patients who received ≥1 dose of carfilzomib. AEs were graded using the National Cancer Institute Common Terminology Criteria for Adverse Events version 4.03 and mapped to preferred term and system organ class using the Medical Dictionary for Regulatory Activities (MedDRA). ORR defined as the proportion of patients for whom the best overall response was stringent complete response, complete response, very good PR, or PR, along with the associated 95% exact binomial CI (Clopper–Pearson method) was determined. CBR, defined as the proportion of patients with the best overall response of MR or better, was likewise determined along with the 95% exact binomial CI.

[2] = Plasma pharmacokinetics of carfilzomib and its major metabolites after 30-min IV infusion, normal renal function vs ESRD; format: in vivo, human; settings: for AUC0−inf Geo mean ratio (90% CI), ESRD vs normal renal function / AUC0−last Geo mean ratio (90% CI), ESRD vs normal renal function: ANOVA of ln-transformed data, ESRD test, normal reference
Protocol: as §1, §2, §3
Descriptive statistics were provided for selected demographics, safety, and PK data, with all statistical summaries and analyses performed in SAS^Ⓡ version 9.1 or higher (SAS Institute Inc., Cary, NC). The primary PK analyses and other PK parameters were performed using the PK-evaluable population. Plasma PK parameters of carfilzomib and metabolites were computed in Phoenix WinNonlin^Ⓡ Enterprise version 5.2 or higher. To assess the effect of ESRD relative to normal renal function on PK parameters (AUC0−last and AUC0−inf), an analysis of variance (ANOVA) of the ln-transformed plasma PK parameters was performed, with renal impairment as a fixed effect. […]

[3] = system: relapsed multiple myeloma; settings: carfilzomib 56 mg/m^2 infused for 30 min with or without dexamethasone, cited from earlier work
Protocol: The 50% ORR in the overall population was similar to those previously reported in trials of carfilzomib 56 mg/m^2 infused for 30 min with or without dexamethasone for relapsed multiple myeloma (50% in a phase I trial and 55% in a phase II trial). Together, the results of this study support current recommendations for carfilzomib that no starting dose adjustment is warranted for patients with baseline renal impairment including those with ESRD [8, 20].

[4] = cited from earlier work
Source text: Carfilzomib, an epoxyketone proteasome inhibitor, is approved in the United States (US), Canada, Australia, European Union (EU), and other jurisdictions for the treatment of relapsed or refractory multiple myeloma. […] Following intravenous (IV) administration, carfilzomib is rapidly and extensively metabolized in patients with multiple myeloma or solid tumors. Similar to the metabolic profile in rats and monkeys, ...

[5] = system: patients with relapsed multiple myeloma; assay: Safety: adverse events (NCI CTCAE v4.03), discontinuations, deaths; format: in vivo, human; settings: for treatment discontinuation due to disease progression: as of data cutoff
Protocol: as §2, §3, §4

[6] = total efficacy-evaluable population

Structure (SMILES): CC(C)C[C@H](NC(=O)[C@H](CCc1ccccc1)NC(=O)CN1CCOCC1)C(=O)N[C@@H](Cc1ccccc1)C(=O)N[C@@H](CC(C)C)C(=O)[C@@]1(C)CO1 [carfilzomib]
- patients with a PFS of ≥6 months ([1]; ESRD): 4 of 10
- Best overall response: Minimal response ([1]; ESRD, n = 10): 0 (0.0) n (%)
- Best overall response: Complete response ([1]; ESRD, n = 10): 0 (0.0) n (%)
- Best overall response: Not evaluable ([1]; ESRD, n = 10): 0 (0.0) n (%)
- Best overall response: Partial response ([1]; ESRD, n = 10): 5 (50.0) n (%)
- Best overall response: Progressive disease ([1]; ESRD, n = 10): 2 (20.0) n (%)
- Best overall response: Stable disease ([1]; ESRD, n = 10): 2 (20.0) n (%)
- Best overall response: Stringent complete response ([1]; ESRD, n = 10): 0 (0.0) n (%)
- Best overall response: Very good partial response ([1]; ESRD, n = 10): 1 (10.0) n (%)
- Clinical benefit rate (95% CI), minimal response or better ([1]; ESRD, n = 10): 60.0 (26.2–87.8) %
- Overall response rate (95% CI), partial response or better ([1]; ESRD, n = 10): 60.0 (26.2–87.8) %
- patients with a PFS of ≥6 months ([1]; normal renal function): 6 of 14
- Best overall response: Minimal response ([1]; normal renal function, n = 14): 1 (7.1) n (%)
- Best overall response: Complete response ([1]; normal renal function, n = 14): 0 (0.0) n (%)
- Best overall response: Partial response ([1]; normal renal function, n = 14): 3 (21.4) n (%)
- Best overall response: Progressive disease ([1]; normal renal function, n = 14): 2 (14.3) n (%)
- Best overall response: Stable disease ([1]; normal renal function, n = 14): 3 (21.4) n (%)
- Best overall response: Stringent complete response ([1]; normal renal function, n = 14): 0 (0.0) n (%)
- Best overall response: Very good partial response ([1]; normal renal function, n = 14): 3 (21.4) n (%)
- Clinical benefit rate (95% CI), minimal response or better ([1]; normal renal function, n = 14): 50.0 (23.0–77.0) %
- Overall response rate (95% CI), partial response or better ([1]; normal renal function, n = 14): 42.9 (17.7–71.1) %
- patients with a PFS >12 months [1, 6]: 4 patients
- patients with a PFS of ≥6 months [1, 6]: Ten
- Best overall response: Minimal response ([1]; total, n = 24): 1 (4.2) n (%)
- Best overall response: Complete response ([1]; total, n = 24): 0 (0.0) n (%)
- Best overall response: Not evaluable ([1]; total, n = 24): 2 (8.3) n (%)
- Best overall response: Partial response ([1]; total, n = 24): 8 (33.3) n (%)
- Best overall response: Progressive disease ([1]; total, n = 24): 4 (16.7) n (%)
- Best overall response: Stable disease ([1]; total, n = 24): 5 (20.8) n (%)
- Best overall response: Stringent complete response ([1]; total, n = 24): 0 (0.0) n (%)
- Best overall response: Very good partial response ([1]; total, n = 24): 4 (16.7) n (%)
- Clinical benefit rate (95% CI), minimal response or better ([1]; total, n = 24): 54.2 (32.8–74.4) %
- Overall response rate (95% CI), partial response or better ([1]; total, n = 24): 50.0 (29.1–70.9) %
- AUC0−inf Geo mean ratio (90% CI), ESRD vs normal renal function ([2]; 27 mg/m^2): 138.09 (102.77–185.54) %
- AUC0−last Geo mean ratio (90% CI), ESRD vs normal renal function ([2]; 27 mg/m^2): 139.72 (112.41–173.66) %
- AUC0−inf Geo mean ratio (90% CI), ESRD vs normal renal function ([2]; 56 mg/m^2, cycle 2 day 1): 133.62 (70.93–251.73) %
- AUC0−last Geo mean ratio (90% CI), ESRD vs normal renal function ([2]; 56 mg/m^2, cycle 2 day 1): 132.75 (70.60–249.63) %
- change in mean AUC0−last and C max between 27 and 56 mg/m^2 ([2]; in vivo): dose-dependent increase
- concentration decline in the first 15 min following the end of the infusion ([2]; in vivo): two orders of magnitude
- mean terminal t 1/2 ([2]; in vivo): 24 to 72 min
- time of peak concentrations after start of infusion ([2]; in vivo, iv): approximately 0.5 h
- ORR ([3]; phase I trial): 50%
- ORR ([3]; phase II trial): 55%
- half-life ([4]; IV administration at doses from 15 to 56 mg/m^2, patients): ≤ 60 min
- dose excreted via urinary metabolites ([4]; within 24 h): approximately 25%
- urinary and fecal excretion of the parent compound ([4]; within 24 h): 0.3 % of the total dose
- treatment discontinuation due to disease progression ([5]; ESRD): 36%
- patients with treatment-related AEs that led to study discontinuation ([5]; in vivo): Four
- treatment discontinuation due to disease progression ([5]; normal renal function): 20%
- patients who died during the study ([5]; total, none considered related to carfilzomib treatment): Five
